In ChEMBL document CHEMBL4828752, “Discovery of 1,2,4-triazine dithiocarbamate derivatives as NEDDylation agonists to inhibit gastric cancers” (Eur J Med Chem, 2021):
The source made the active and inactive calls. The calls are words filed in the database; no cut-off is given here.

What was measured:
[1] = molecular target: T1, NEDD8-activating enzyme E1 regulatory subunit (Homo sapiens) (UniProt Q13564); test: Activation of NAE1-mediated neddylation in human HGC-27 cells assessed as increase in NAE1-NEDD8 level incubated for 12 hrs by western blot analysis; type: cell-based; settings: filed as agonist, dose 1-9 µM
T1 sequence (whole entry): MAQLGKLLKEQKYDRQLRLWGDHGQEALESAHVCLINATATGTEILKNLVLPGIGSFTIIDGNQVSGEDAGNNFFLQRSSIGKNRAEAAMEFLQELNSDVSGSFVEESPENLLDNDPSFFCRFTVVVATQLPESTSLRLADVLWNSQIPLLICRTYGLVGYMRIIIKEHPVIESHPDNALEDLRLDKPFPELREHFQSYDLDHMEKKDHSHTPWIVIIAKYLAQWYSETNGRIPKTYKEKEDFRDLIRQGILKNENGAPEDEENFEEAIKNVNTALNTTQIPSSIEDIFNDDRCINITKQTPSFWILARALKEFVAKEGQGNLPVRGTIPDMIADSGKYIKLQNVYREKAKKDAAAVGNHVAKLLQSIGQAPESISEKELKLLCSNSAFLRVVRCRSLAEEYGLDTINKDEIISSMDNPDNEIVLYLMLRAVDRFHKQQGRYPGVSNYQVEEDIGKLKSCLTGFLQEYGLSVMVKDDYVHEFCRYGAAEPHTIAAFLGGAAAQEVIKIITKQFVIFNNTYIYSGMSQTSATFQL

[2] = molecular target: T1, NEDD8-activating enzyme E1 regulatory subunit (Homo sapiens); test: Activation of NAE1 (unknown origin) mediated neddylation assessed as Ubc12-NEDD8 level at 2 uM by western blot analysis; settings: filed as agonist
HGC-27 [3] = test: Antiproliferative activity against human HGC-27 cells assessed as reduction in cell viability at 3 uM measured every 60 mins for 48 hrs by xCELLigence based RTCA analysis; type: functional
MGC-803 [4] = test: Induction of cell morphological changes in human MGC-803 cells assessed as rounding of nucleus at 1 to 3 uM measured after 48 hrs by DAPI staining based fluorescence analysis; type: functional; settings: dose 1-3 µM
HGC-27 [5] = test: Induction of cell morphological changes in human HGC-27 cells assessed as rounding of nucleus at 1 to 9 uM measured after 48 hrs by DAPI staining based fluorescence analysis; type: functional; settings: dose 1-9 µM
HGC-27 [6] = test: Induction of cell morphological changes in human HGC-27 cells assessed as cell rounding at 1 to 9 uM measured after 48 hrs by bright field microscopic analysis; type: functional, cell-based; settings: dose 1-9 µM
MGC-803 [7] = test: Induction of cell morphological changes in human MGC-803 cells assessed as increase in dead cells by measuring red fluorescence at 1 to 3 uM incubated for 48 hrs by calcein-AM/PI staining based fluorescence analysis; type: functional; settings: dose 1-3 µM
[8] = molecular target: T1, NEDD8-activating enzyme E1 regulatory subunit (Homo sapiens); test: Activation of NAE1-mediated protein degradation in human HGC-27 cells assessed as downregulation of YAP/TAZ at 1 to 9 uM measured after 48 hrs by western blot analysis; type: cell-based; settings: filed as agonist, dose 1-9 µM
MGC-803 [9] = test: Downregulation of phosphorylated YAP level in human MGC-803 cells at 1 to 3 uM measured after 48 hrs by western blot analysis; type: functional, cell-based; settings: dose 1-3 µM
[10] = molecular target: T1, NEDD8-activating enzyme E1 regulatory subunit (Homo sapiens); test: Activation of NAE1-mediated protein degradation in human MGC-803 cells assessed as decrease in c-IAPI level at 1 to 3 uM measured after 48 hrs by western blot analysis; type: cell-based; settings: filed as agonist, dose 1-3 µM
[11] = molecular target: T1, NEDD8-activating enzyme E1 regulatory subunit (Homo sapiens); test: Activation of NAE1 in human HGC-27 cells assessed as decrease in c-Myc expression at 9 uM measured after 48 hrs in the presence of NEDDylation inhibitor, MLN4924 by western blot analysis; type: cell-based
[12] = molecular target: T1, NEDD8-activating enzyme E1 regulatory subunit (Homo sapiens); test: Activation of NAE1 in human MGC-803 cells assessed as PARP cleavage at 3 uM measured after 48 hrs in the presence of NEDDylation inhibitor, MLN4924 by western blot analysis; type: cell-based
[13] = molecular target: T1, NEDD8-activating enzyme E1 regulatory subunit (Homo sapiens); test: Activation of NAE1 in human MGC-803 cells assessed as downregulation of YAP/TAZ level at 3 uM measured after 48 hrs in the presence of proteosome inhibitor, MG132 by western blot analysis; type: cell-based
MGC-803 [14] = test: Antiproliferative activity against human MGC-803 cells assessed as reduction in cell viability at 3 uM measured every 60 mins for 48 hrs in the presence of NEDDylation inhibitor, MLN4924 by xCELLigence based RTCA analysis; type: functional
MGC-803 [15] = test: Antiproliferative activity against human MGC-803 cells assessed as reduction in cell viability at 3 uM measured every 60 mins for 48 hrs in the presence of proteasome inhibitor, MG132 by xCELLigence based RTCA analysis; type: functional
HGC-27 [16] = test: Antiproliferative activity against human HGC-27 cells assessed as reduction in cell viability at 3 uM measured every 60 mins for 48 hrs in the presence of proteasome inhibitor, MG132 by xCELLigence based RTCA analysis; type: functional
MGC-803 [17] = test: Induction of cell morphological changes in human MGC-803 cells transfected with NEDD8 siRNA assessed as reduction in cell density at 3 uM measured after 48 hrs by calcein-AM/PI staining based fluorescence analysis; type: functional
MGC-803 [18] = test: Induction of apoptosis in human MGC-803 cells assessed as upregulation of Bax protein level at 1 to 3 uM measured after 48 hrs by western blot analysis; type: functional, cell-based; settings: dose 1-3 µM
HGC-27 [19] = test: Induction of apoptosis in human HGC-27 cells assessed as down regulation of Bcl-2 protein level at 1 to 9 uM measured after 48 hrs by western blot analysis; type: functional, cell-based; settings: dose 1-9 µM
MGC-803 [20] = test: Induction of G2/M phase arrest in human MGC-803 cells assessed as downregulation of p-Cdc2 protein expression at 1 to 3 uM measured after 48 hrs by western blot analysis; type: functional, cell-based; settings: dose 1-3 µM
HGC-27 [21] = test: Induction of G2/M phase arrest in human HGC-27 cells assessed as upregulation of p-histone H3 expression at 1 to 9 uM measured after 48 hrs by western blot analysis; type: functional, cell-based; settings: dose 1-9 µM
MGC-803 [22] = test: Induction of apoptosis in human MGC-803 cells at 3 uM measured after 48 hrs in the presence of NEDDylation inhibitor, MLN4924 by flow cytometry analysis; type: functional, cell-based
MGC-803 [23] = test: Induction of G2/M phase arrest in human MGC-803 cells at 3 uM measured after 48 hrs in the presence of NEDDylation inhibitor, MLN4924 by flow cytometry; type: functional, cell-based
[24] = molecular target: T1, NEDD8-activating enzyme E1 regulatory subunit (Homo sapiens); test: Activation of NAE1-mediated protein degradation in human MGC-803 cells assessed as decrease in YAP/TAZ level at 3 uM measured after 48 hrs in presence of NEDDylation inhibitor, MLN4924 by western blot analysis; type: cell-based
[25] = molecular target: T1, NEDD8-activating enzyme E1 regulatory subunit (Homo sapiens); test: Activation of NAE1-mediated protein degradation in human HGC-27 cells assessed as decrease in YAP/TAZ level at 9 uM measured after 48 hrs in presence of NEDDylation inhibitor, MLN4924 by western blot analysis; type: cell-based
[26] = molecular target: T1, NEDD8-activating enzyme E1 regulatory subunit (Homo sapiens); test: Activation of NAE1-mediated protein degradation in human MGC-803 cells transfected with NEDD8 siRNA assessed as decrease in c-IAPI level at 3 uM measured after 48 hrs by western blot analysis; type: cell-based
MGC-803 [27] = test: Antiproliferative activity against human MGC-803 cells assessed as reduction in cell viability by xCELLigence based RTCA analysis; type: functional; settings: TDE = time-dependent effect
HGC-27 [28] = test: Antiproliferative activity against human HGC-27 cells assessed as reduction in cell viability by xCELLigence based RTCA analysis; type: functional; settings: TDE = time-dependent effect

## COc1cc(-c2nc(NC(=O)CSC(=S)N3CCN(C(=O)OC(C)(C)C)CC3)nnc2-c2ccc(C)cc2)cc(OC)c1OC
[1]
  Activity: Dose-Dependent Effect
[2]
  Activity: Active
HGC-27 [3]
  Activity: Active
MGC-803 [4]
  Activity: Active
HGC-27 [5]
  Activity: Active
HGC-27 [6]
  Activity: Active
MGC-803 [7]
  Activity: Active
[8]
  Activity: Active
MGC-803 [9]
  inhibition: Active
[10]
  Activity: Active
[11]
  Activity: inactive
[12]
  Activity: inactive
[13]
  Activity: inactive
MGC-803 [14]
  Activity: inactive
MGC-803 [15]
  Activity: inactive
HGC-27 [16]
  Activity: inactive
MGC-803 [17]
  Activity: inactive
MGC-803 [18]
  Activity: Active
HGC-27 [19]
  Activity: Active
MGC-803 [20]
  Activity: Active
HGC-27 [21]
  Activity: Active
MGC-803 [22]
  Activity: inactive
MGC-803 [23]
  Activity: inactive
[24]
  Activity: inactive
[25]
  Activity: inactive
[26]
  Activity: inactive
MGC-803 [27]
  Activity: Tde
HGC-27 [28]
  Activity: Tde
